The numbers were not newly measured in patent US20070292523A1, “Dihydropyrimidine Formulations” (priority 2004, published 2007), which cites them from elsewhere.

SMILES strings stand for the structures.

One series concerns cytochrome P450. The following applies: nimodipine with cimetidine (Drugs Aging, 1995, 6, 229-42).
Series [1] has as its system presystemic oxidative metabolism of nimodipine. As to conditions: nimodipine and valproic acid administered in combination (Drugs Aging, 1995, 6, 229-42).

Take `CN/C(=N/CCSCc1nc[nH]c1C)NC#N` [cimetidine]: the bioavailability of nimodipine result with cytochrome P450 is reported as “approximate doubling of the bioavailability of nimodipine”.
Turning to `CCCC(CCC)C(=O)O` [valproic acid], in series [1], the “plasma concentrations of nimodipine” value is reported as “increased plasma concentrations of nimodipine”.
For the compound `COCCOC(=O)C1=C(C)NC(C)=C(C(=O)OC(C)C)C1c1cccc([N+](=O)[O-])c1` (stereo not drawn) [nimodipine, Nimodipine], the solubility in water result is given as “practically insoluble in water”.
